In test [1] the target is T1, human adenosine A1 receptor (Homo sapiens, UniProt P30542).
T1 construct: expressed in transfected cells; host or cells: Chinese hamster ovary (CHO) cells with CRE/SPAP/HYG reporter elements
T1 sequence (P30542 1-326): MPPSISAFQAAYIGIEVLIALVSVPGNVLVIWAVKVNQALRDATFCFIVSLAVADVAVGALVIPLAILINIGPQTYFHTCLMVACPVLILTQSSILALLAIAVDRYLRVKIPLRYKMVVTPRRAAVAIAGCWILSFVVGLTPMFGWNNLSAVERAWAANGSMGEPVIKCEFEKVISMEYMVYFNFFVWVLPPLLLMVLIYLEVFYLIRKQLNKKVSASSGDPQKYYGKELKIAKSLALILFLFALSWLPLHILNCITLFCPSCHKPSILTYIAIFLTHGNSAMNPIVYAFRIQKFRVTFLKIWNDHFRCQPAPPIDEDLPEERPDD
In words: Reporter gene assay (CRE/SPAP) in CHO cells, agonist potency relative to NECA, adenosine A1 receptor. The test is classed as cell-based. Details: key: equipotent concentration ratio, NECA = 1. As to conditions: ECR = equipotent concentration ratio relative to NECA = 1, inhibition of forskolin-stimulated SPAP production. Here is the method:
(§1) Reporter Gene Experiments
(§2) Agonist activity was measured in Chinese hamster ovary (CHO) cells containing the CRE/SPAP/HYG (CRE=cyclic AMP response element; HYG=hygromycin resistance; SPAP=secreted placental alkaline phosphatase) reporter gene elements, which upon stimulation of cAMP levels produced SPAP. A cell line was used, which was stably transfected with either the human adenosine A1 receptor or the human adenosine A3 receptor in addition to the above elements. Cells were plated out in 96-well plates in culture medium and incubated at 37° C. for 1 hour. For measurement of potency, agonists were added to the appropriate wells at a concentration range of approximately 10^−10- 10^−5M. 15Min later, cAMP levels were stimulated by addition of a maximal concentration of forskolin. All cells were then incubated for a further 5 hours at 37° C., and cooled to room temperature, after which a substrate for the phosphatase (para-nitrophenol phosphate, pNPP), which is converted by SPAP to a coloured reagent) was then added and the 96-well -plates were read in a plate reader. From these readings, the concentration-dependence of the inhibition by the agonist for forskolin-stimulated SPAP production can be calculated. One of the agonists tested on each 96-well plate was the standard non-selective agonist, N-ethylcarboxamidoadenosine (NECA), and the potency of all test agonists is expressed relative to that of the NECA standard.
(§3) (ECR=equipotent concentration ratio relative to NECA=1)

Test [2] addresses T2, human adenosine A3 receptor (Homo sapiens, UniProt P0DMS8).
T2 construct: expressed in transfected cells; host or cells: Chinese hamster ovary (CHO) cells with CRE/SPAP/HYG reporter elements
T2 sequence (P0DMS8 1-318): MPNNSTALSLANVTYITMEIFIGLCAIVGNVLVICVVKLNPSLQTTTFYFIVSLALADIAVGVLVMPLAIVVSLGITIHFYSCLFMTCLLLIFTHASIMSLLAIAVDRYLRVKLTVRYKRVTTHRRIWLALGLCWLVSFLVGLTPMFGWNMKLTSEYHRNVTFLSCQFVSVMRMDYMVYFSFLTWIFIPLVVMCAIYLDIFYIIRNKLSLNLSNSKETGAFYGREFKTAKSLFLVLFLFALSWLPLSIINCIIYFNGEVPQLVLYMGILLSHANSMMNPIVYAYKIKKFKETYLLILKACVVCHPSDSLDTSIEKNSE
In words: Reporter gene assay (CRE/SPAP) in CHO cells, agonist potency relative to NECA, adenosine A3 receptor. The format is cell-based. Details: key: equipotent concentration ratio, NECA = 1. As to conditions: ECR = equipotent concentration ratio relative to NECA = 1, inhibition of forskolin-stimulated SPAP production. The protocol:
as §1, §2, §3

Consider `CC(C)(C)c1noc([C@H]2O[C@@H](n3cnc4c(NCC5CC5)ncnc43)[C@H](O)[C@@H]2O)n1` [Example 44, (2S,3S,4 R,5R)-2-[3-(tert-butyl)-1,2,4-oxadiazol-5-yl]-5-{6-[(cyclopropylmethyl)amino]-9H-purin-9-yl}tetrahydrofuran-3,4-diol], for which the “Adenosine A1 receptor ECR*” value in test [1] amounted to 7.68. Further, the “Adenosine A3 receptor ECR*” value in test [2] came to 165.54.

As for `COCc1noc([C@H]2O[C@@H](n3cnc4c(NC5CCCC5)ncnc43)[C@H](O)[C@@H]2O)n1` [Example 129, (2R,3R,4S,5S)-2-[6-(cyclopentylamino)-9H-purin-9-yl]-5-[3-(methoxymethyl)-1,2,4-oxadiazol-5-yl]tetrahydrofuran-3,4-diol], in test [1], the “Adenosine A1 receptor ECR*” value was determined as 15.5. For the same compound, in test [2], the “Adenosine A3 receptor ECR*” value is given as greater than 199.

Turning to `CCNS(=O)(=O)CCNc1ncnc2c1ncn2[C@@H]1O[C@H](c2cc(C(C)(C)C)no2)[C@@H](O)[C@H]1O` [Example 177, 2-[(9-{(2R,3R,4S,5S)-5-[3-(tert-butyl)isoxazol-5-yl]-3,4-dihydroxy-tetrahydrofuran-2-yl}-9H-purin-6-yl)amino]-N-ethylethane-sulfonamide], the “Adenosine A1 receptor ECR*” value in test [1] is listed as 2.01. Further, the “Adenosine A3 receptor ECR*” value in test [2] is given as 122.

Regarding `CC(C)(C)c1nnc([C@H]2O[C@@H](n3cnc4c(Nc5ccc(Cl)cc5F)ncnc43)[C@H](O)[C@@H]2O)[nH]1` [Example 67, (2R,3S,4 R,5 R)-2-[5-(tert-butyl)-4H-1,2,4-triazol-3-yl]-5-[6-(4-chloro-2-fluoroanilino)-9H-purin-9-yl]tetrahydrofuran-3,4-diol], the “Adenosine A1 receptor ECR*” value in test [1] is 9.8. Besides, the “Adenosine A3 receptor ECR*” value in test [2] was 827.66.

In the case of `CCOC(=O)N1CCC(Nc2ncnc3c2ncn3[C@@H]2O[C@H](c3nnc(C(C)(C)C)o3)[C@@H](O)[C@H]2O)CC1` [Example 4, 4-{9-[5S-(5-tert-Butyl-[1,3,4]oxadiazol-2-yl)-3R,4S-dihydroxy-tetrahydro-furan-2R-yl]-9H-purin-6-ylamino}-piperidine-1-carboxylic acid ethyl ester], the “Adenosine A1 receptor ECR*” value in test [1] turned out to be 5.65. The “Adenosine A3 receptor ECR*” value in test [2] came out at 152.

For the compound `O[C@@H]1[C@H](O)[C@@H](c2nc(C3CC3)no2)O[C@H]1n1cnc2c(Nc3ccc(Cl)cc3F)ncnc21` [Example 62, (2R,3R,4S,5S)-2-[6-(4-chloro-2-fluoroanilino)-9H-purin-9-yl]-5-(3-cyclopropyl-1,2,4-oxadiazol-5-yl)tetrahydrofuran-3,4-diol], the “Adenosine A1 receptor ECR*” value in test [1] is given as 29.47. The “Adenosine A3 receptor ECR*” value in test [2] came to 327.

Turning to `CC(C)(C)c1nnc([C@H]2O[C@@H](n3cnc4c(NC5CCOCC5)ncnc43)[C@H](O)[C@@H]2O)o1` [Example 3, (2S,3S,4R,5R)-2-(5-tert-Butyl-[1,3,4]oxadiazol-2-yl)-5-[6-(tetrahydro-pyran-4-ylamino)-purin-9-yl]-tetrahydro-furan-3,4-diol], the “Adenosine A1 receptor ECR*” value in test [1] came to 4.16. Further, the “Adenosine A3 receptor ECR*” value in test [2] is listed as 152.

As for `CCc1cnc([C@H]2O[C@@H](n3cnc4c(NC5CCOCC5)ncnc43)[C@H](O)[C@@H]2O)o1` [Example 16, (2S,3S,4R,5R)-2-(5-Ethyl-oxazol-2-yl)-5-[6-(tetrahydro-pyran-4-ylamino)-purin-9-yl]-tetrahydro-furan-3,4-diol], the “Adenosine A1 receptor ECR*” value in test [1] is 9.6. In addition, the “Adenosine A3 receptor ECR*” value in test [2] is recorded as 201.

With `CC(C)(C)c1noc([C@H]2O[C@@H](n3cnc4c(N[C@H]5CCC[C@@H]5O)ncnc43)[C@H](O)[C@@H]2O)n1` [Example 21, (2S,3S,4R,5R)-2-(3-tert-Butyl-[1,2,4]oxadiazol-5-yl)-5-[6-(2S-hydroxy-cyclopent-(S)-ylamino)-purin-9-yl]-tetrahydro-furan-3,4-diol], the “Adenosine A1 receptor ECR*” value in test [1] is listed as 23.26. In test [2], the “Adenosine A3 receptor ECR*” value was determined as 321.

In the case of `CC(C)(C)c1nnc([C@H]2O[C@@H](n3cnc4c(NC5CCOCC5)ncnc43)[C@H](O)[C@@H]2O)[nH]1` [Example 139, (2R,3S,4R,5R)-2-[5-(tert-butyl)-4H-1,2,4-triazol-3-yl]-5-[6-(tetrahydro-2H-pyran-4-ylamino)-9H-purin-9-yl]tetrahydrofuran-3,4-diol], in test [1], the “Adenosine A1 receptor ECR*” value is given as 10.64. Moreover, the “Adenosine A3 receptor ECR*” value in test [2] is on record as 228.

Consider `CCNS(=O)(=O)CCNc1ncnc2c1ncn2[C@@H]1O[C@H](c2nnc(C(C)(C)C)o2)[C@@H](O)[C@H]1O` [Example 123, 2-[(9-{(2R,3 R,4S,5S)-5-[5-(tert-butyl)-1,3,4-oxadiazol-2-yl]-3,4-dihydroxytetrahydrofuran-2-yl}-9H-purin-6-yl)amino]-N-ethylethanesulfonamide], for which the “Adenosine A1 receptor ECR*” value in test [1] is reported as 4.19. Also, the “Adenosine A3 receptor ECR*” value in test [2] is reported as 325.44.

On to `Cc1nnc([C@H]2O[C@@H](n3cnc4c(N[C@H]5CCC[C@@H]5O)ncnc43)[C@H](O)[C@@H]2O)o1` [Example 132, (2R,3R,4S,5S)-2-(6-{[(1 S,2S)-2-hydroxycyclopentyl]amino}-9H-purin-9-yl)-5-(5-methyl-1,3,4-oxadiazol-2-yl)tetrahydrofuran-3,4-diol], for which the “Adenosine A1 receptor ECR*” value in test [1] came to 0.53. The “Adenosine A3 receptor ECR*” value in test [2] was greater than 22.4.

For `CC(C)(C)c1cc([C@H]2O[C@@H](n3cnc4c(NC5CCOCC5)ncnc43)[C@H](O)[C@@H]2O)on1` [Example 28, (2S,3S,4R,5R)-2-(3-tert-Butyl-isoxazol-5-yl)-5-[6-(tetrahydro-pyran-4-ylamino)-purin-9-yl]-tetrahydro-furan-3,4-diol], the “Adenosine A1 receptor ECR*” value in test [1] was 0.42. In addition, the “Adenosine A3 receptor ECR*” value in test [2] is given as 44.7.

As for `CC(C)CNc1ncnc2c1ncn2[C@@H]1O[C@H](c2nc(C(C)(C)C)no2)[C@@H](O)[C@H]1O` [Example 45, (2S,3S,4R,5R)-2-[3-(tert-butyl)-1,2,4-oxadiazol-5-yl]-5-[6-(isobutylamino)-9H-purin-9-yl]tetrahydrofuran-3,4-diol], the “Adenosine A1 receptor ECR*” value in test [1] came to 7.36. In addition, the “Adenosine A3 receptor ECR*” value in test [2] was 165.54.

As for `CC(C)c1noc([C@H]2O[C@@H](n3cnc4c(Nc5ccc(F)c(F)c5)ncnc43)[C@H](O)[C@@H]2O)n1` [Example 56, (2R,3R,4S,5S)-2-[6-(3,4-difluoroanilino)-9H-purin-9-yl]-5-(3-isopropyl-1,2,4-oxadiazol-5-yl)tetrahydrofuran-3,4-diol], the “Adenosine A1 receptor ECR*” value in test [1] was 15.96. For the same compound, the “Adenosine A3 receptor ECR*” value in test [2] was determined as 717.99.

With `CC(C)c1nnc([C@H]2O[C@@H](n3cnc4c(NC5CCOCC5)ncnc43)[C@H](O)[C@@H]2O)o1` [Example 6, (2S,3S,4R,5R)-2-(5-Isopropyl-[1,3,4]oxadiazol-2-yl)-5-[6-(tetrahydro-pyran-4-ylamino)-purin-9-yl]-tetrahydro-furan-3,4-diol], the “Adenosine A1 receptor ECR*” value in test [1] came to 1.71. Besides, the “Adenosine A3 receptor ECR*” value in test [2] stood at 134.

Regarding `O[C@@H]1[C@H](O)[C@@H](c2nnc(C3CC3)o2)O[C@H]1n1cnc2c(NC3CCOCC3)ncnc21` [Example 108, (2S,3S,4R,5R)-2-(5-cyclopropyl-1,3,4-oxadiazol-2-yl)-5-[6-(tetrahydro-2H-pyran-4-ylamino)-9H-purin-9-yl]tetrahydrofuran-3,4-diol], the “Adenosine A1 receptor ECR*” value in test [1] was found to be 1.52. Besides, in test [2], the “Adenosine A3 receptor ECR*” value came out at 254.

Take `CCOC(=O)N1CCC(Nc2ncnc3c2ncn3[C@@H]2O[C@H](c3nnc(C(F)(F)F)o3)[C@@H](O)[C@H]2O)CC1` [Example 180, ethyl 4-[(9-{(2R,3R,4S,5S)-3,4-dihydroxy-5-[5-(trifluoromethyl)-1,3,4-oxadiazol-2-yl]-tetrahydrofuran-2-yl}-9H-purin-6-yl)amino]-piperidine-1-carboxylate]: the “Adenosine A1 receptor ECR*” value in test [1] came to 18.1. Moreover, in test [2], the “Adenosine A3 receptor ECR*” value is listed as greater than 471.

On to `CCc1nnc([C@H]2O[C@@H](n3cnc4c(NC(C)C)ncnc43)[C@H](O)[C@@H]2O)o1` [Example 131, (2S,3S,4R,5R)-2-(5-ethyl-1,3,4-oxadiazol-2-yl)-5-[6-(isopropylamino)-9H-purin-9-yl]tetrahydrofuran-3,4-diol], for which the “Adenosine A1 receptor ECR*” value in test [1] amounted to 0.15. The “Adenosine A3 receptor ECR*” value in test [2] was 199.01.

The record behind these values is patent US6677316B2, “Adenosine derivatives and methods of administration” (SmithKline Beecham Corporation, priority 1998, dated 2004).
